Where “and” joins values, the source holds several entries; their conditions need not be identical. Equal entries are not always repeated.
What was measured:
[1] = Toxicokinetics, 26-week rat study; assay type: in vivo, Sprague Dawley rats; conditions: for AUC(0-inf): both sexes, Sprague Dawley, rat, plasma, po, mean of male and female rats
Method: DMB was administered to Sprague Dawley rats daily for 26 weeks at doses of 50, 100 and 500 mg/kg/day via oral gavage. Plasma levels of DMB were measured at 1 to 24 hours post-dose on Days 1 and 181. […] Systemic exposure increased with increasing dose level and was greater than dose-proportional on Day 0 and Day 181. The peak and extent of systemic exposure of Sprague Dawley rats to DMB were similar in males and females. Systemic exposure values on Day 181 ranged from 137% to 218% of the values at Day 0 indicating an accumulation of DMB during this time period.
Toxicokinetic information from the 26-week rat (Table 7) and 26-week dog toxicity studies (Table 8) are compared to systemic exposure (AUC) levels determined in a clinical study.

[2] = 28-Day repeat dose toxicity study in rats; assay type: in vivo, Sprague Dawley rats
Text: Completed toxicology studies conducted with DMB include a single-dose toxicity study in Sprague-Dawley rats, escalating dose toxicity study in Beagle dogs, a repeat dose study of 14-Day duration in Sprague-Dawley rats and repeat-dose toxicity studies of 28-Day duration in Sprague-Dawley rats and Beagle dogs, and 26-Week studies in Sprague-Dawley rats and Beagle dogs. […] Reproductive toxicity studies include two dose-range finding studies, one in Sprague-Dawley rats, the other in New Zealand white rabbits. DMB was administered once a day (QD) orally via gavage; doses are expressed as the sodium salt. In addition, an array of genotoxicity studies were conducted with DMB.
There were no histologic correlates with these findings. […] These changes in organ weight were not associated with abnormal pathology and not considered adverse.
Kidney weight was not increased in the single surviving 2,000/1,500 mg/kg/day male. […] There were no test article-related histomorphologic alterations consistent with the increase in absolute or relative kidney weights at either dose level.
Several clinical pathology changes occurred in the 28-Day Sprague Dawley rat study. […] At ≧1,000 mg/kg/day, decreases in Hgb, Hct, MCV, and MCHC, were observed. Decreases in Hgb, Hct, and MCV were also seen in 500 mg/kg/day females. Activated partial thromboplastin time was decreased in males at ≧1,000 mg/kg/day and females at 2,000/1,500 mg/kg/day and prothrombin time was increased in males of both groups. […] These serum chemistry changes were associated with the decreases seen in body weights and food consumption in these groups.

[3] = target: T1, CYP1A2 (Homo sapiens, UniProt P05177); assay: Cytochrome P450 inhibition in human hepatic microsomes; assay type: in vitro ADME
T1 construct: from tissue; host or cells: human hepatic microsomes
T1 sequence (P05177 whole entry): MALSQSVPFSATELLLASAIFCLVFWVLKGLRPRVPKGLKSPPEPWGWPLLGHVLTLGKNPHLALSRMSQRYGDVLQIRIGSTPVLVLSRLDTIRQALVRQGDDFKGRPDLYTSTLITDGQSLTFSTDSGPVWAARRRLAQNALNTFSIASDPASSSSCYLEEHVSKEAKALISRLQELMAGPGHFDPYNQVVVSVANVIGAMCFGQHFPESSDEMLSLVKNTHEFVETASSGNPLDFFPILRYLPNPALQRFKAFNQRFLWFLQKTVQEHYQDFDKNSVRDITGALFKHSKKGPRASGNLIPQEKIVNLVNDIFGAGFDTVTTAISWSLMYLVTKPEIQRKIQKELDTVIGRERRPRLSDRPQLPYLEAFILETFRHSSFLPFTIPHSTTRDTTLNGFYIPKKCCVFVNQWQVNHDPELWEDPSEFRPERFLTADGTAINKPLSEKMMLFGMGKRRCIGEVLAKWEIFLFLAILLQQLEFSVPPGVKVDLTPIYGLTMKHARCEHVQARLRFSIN
Method: (§1) The inhibitory potential of DMB on the human cytochrome P450 activities involved in the metabolism of phenacetin O-deethylase (CYP1A2), bupropion hydroxylase (CYP2B6), amodiaquine N-deethylase (CYP2C8), diclofenac 4′-hydroxylase (CYP2C9), S-mephenyloin 4′-hydroxylase (CYP2C19), bufuralol 1′-hydroxylase (CYP2D6), testosterone 6β-hydroxylase (CYP3A), and midazolam 1′-hydroxylase (CYP3A) was assessed in vitro using human hepatic microsomes. Microsomes were incubated with isoenzyme-selective substrates at concentrations approximating the Km value in the absence and presence of DMB (at concentrations ranging from 0.1 to […]). The extent of inhibition was assessed by comparing activities from control and DMB-treated microsomes. […] Percent activity remaining was high for all cytochrome P450 assays with 80% activity remaining compared with control activities.

[4] = target: T2, CYP2C8 (Homo sapiens, UniProt P10632); assay: as above; assay type: in vitro ADME
T2 construct: from tissue; host or cells: human hepatic microsomes
T2 sequence (P10632 whole entry): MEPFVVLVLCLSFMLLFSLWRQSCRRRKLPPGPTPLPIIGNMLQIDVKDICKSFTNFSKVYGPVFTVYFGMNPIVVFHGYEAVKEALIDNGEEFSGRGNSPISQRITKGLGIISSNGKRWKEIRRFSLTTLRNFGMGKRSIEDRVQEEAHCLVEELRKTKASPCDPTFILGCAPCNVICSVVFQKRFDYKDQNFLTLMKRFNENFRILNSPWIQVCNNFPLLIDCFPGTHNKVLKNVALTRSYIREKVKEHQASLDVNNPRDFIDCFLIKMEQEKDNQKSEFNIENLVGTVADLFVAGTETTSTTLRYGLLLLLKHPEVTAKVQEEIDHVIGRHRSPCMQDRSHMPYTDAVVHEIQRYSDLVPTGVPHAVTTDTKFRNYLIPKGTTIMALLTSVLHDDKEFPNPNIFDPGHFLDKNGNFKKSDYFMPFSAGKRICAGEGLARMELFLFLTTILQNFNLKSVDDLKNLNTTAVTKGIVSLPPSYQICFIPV
Method: as §1

[5] = target: T3, CYP2C19 (Homo sapiens, UniProt P33261); assay: as above; assay type: in vitro ADME
T3 construct: from tissue; host or cells: human hepatic microsomes
T3 sequence (P33261 whole entry): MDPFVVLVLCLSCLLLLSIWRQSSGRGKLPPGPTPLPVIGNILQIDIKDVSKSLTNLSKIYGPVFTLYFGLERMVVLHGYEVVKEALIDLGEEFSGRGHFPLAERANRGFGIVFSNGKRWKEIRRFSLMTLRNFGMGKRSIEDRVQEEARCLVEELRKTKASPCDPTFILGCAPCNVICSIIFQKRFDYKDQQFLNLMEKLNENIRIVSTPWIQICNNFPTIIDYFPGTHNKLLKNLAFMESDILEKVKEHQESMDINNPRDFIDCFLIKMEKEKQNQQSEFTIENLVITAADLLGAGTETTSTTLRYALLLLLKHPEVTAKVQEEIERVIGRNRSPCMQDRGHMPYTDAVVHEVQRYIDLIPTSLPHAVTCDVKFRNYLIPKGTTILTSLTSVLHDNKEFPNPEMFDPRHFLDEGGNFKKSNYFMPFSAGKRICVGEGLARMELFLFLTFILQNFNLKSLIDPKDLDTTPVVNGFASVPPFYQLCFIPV
Method: as §1

[6] = tested on: CYP3A; assay: as above; assay type: in vitro ADME
Method: as §1

[7] = target: T4, CYP2D6 (Homo sapiens, UniProt P10635); assay: as above; assay type: in vitro ADME
T4 construct: from tissue; host or cells: human hepatic microsomes
T4 sequence (P10635 whole entry): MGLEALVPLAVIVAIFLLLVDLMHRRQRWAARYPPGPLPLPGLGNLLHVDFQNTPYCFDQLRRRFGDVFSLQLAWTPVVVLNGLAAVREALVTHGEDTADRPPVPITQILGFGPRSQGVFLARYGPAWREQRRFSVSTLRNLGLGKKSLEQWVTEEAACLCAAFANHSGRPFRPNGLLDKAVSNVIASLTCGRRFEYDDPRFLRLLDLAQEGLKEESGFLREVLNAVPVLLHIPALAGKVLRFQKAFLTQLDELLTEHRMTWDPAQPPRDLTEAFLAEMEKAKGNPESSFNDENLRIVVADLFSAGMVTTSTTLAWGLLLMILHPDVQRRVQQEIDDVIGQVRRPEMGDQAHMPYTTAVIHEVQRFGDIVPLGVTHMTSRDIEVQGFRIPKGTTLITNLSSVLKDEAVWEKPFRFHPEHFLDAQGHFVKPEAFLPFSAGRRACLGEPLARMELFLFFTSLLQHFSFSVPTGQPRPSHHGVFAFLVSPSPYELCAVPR
Method: as §1

[8] = compared with control activities

CCC(C)(C)C(=O)[O-].[Na+] [DMB, Sodium 2,2-dimethylbutyrate]
time of peak plasma concentrations ([1]; Day 0): 1 h | AUC(0-inf) ([1]; 50 mg/kg): 125 µg·h/mL | AUC(0-inf) ([1]; 100 mg/kg): 278 µg·h/mL | AUC(0-inf) ([1]; 500 mg/kg (NOAEL)): 3440 µg·h/mL | rat AUC0-∞ relative to human AUC0-∞ ([1]; rat 50 mg/kg vs human 2 mg/kg): 3.2X | rat AUC0-∞ relative to human AUC0-∞ ([1]; rat 50 mg/kg vs human 5 mg/kg): 0.4X | rat AUC0-∞ relative to human AUC0-∞ ([1]; rat 50 mg/kg vs human 10 mg/kg): 0.2X | rat AUC0-∞ relative to human AUC0-∞ ([1]; rat 50 mg/kg vs human 20 mg/kg): 0.1X | rat AUC0-∞ relative to human AUC0-∞ ([1]; rat 100 mg/kg vs human 2 mg/kg): 7.3X | rat AUC0-∞ relative to human AUC0-∞ ([1]; rat 100 mg/kg vs human 5 mg/kg): 0.9X | rat AUC0-∞ relative to human AUC0-∞ ([1]; rat 100 mg/kg vs human 10 mg/kg): 0.5X | rat AUC0-∞ relative to human AUC0-∞ ([1]; rat 100 mg/kg vs human 20 mg/kg): 0.2X | rat AUC0-∞ relative to human AUC0-∞ ([1]; rat 500 mg/kg (NOAEL) vs human 2 mg/kg): 91X | rat AUC0-∞ relative to human AUC0-∞ ([1]; rat 500 mg/kg (NOAEL) vs human 5 mg/kg): 10.7X | rat AUC0-∞ relative to human AUC0-∞ ([1]; rat 500 mg/kg (NOAEL) vs human 10 mg/kg): 6.4X | rat AUC0-∞ relative to human AUC0-∞ ([1]; rat 500 mg/kg (NOAEL) vs human 20 mg/kg): 2.9 X | RBC, lymphocyte, and leukocyte counts ([2]; 2,000/1,500 mg/kg/day): decreased | NOAEL at 28 days ([2]; female, Sprague Dawley, rat, in vivo): 200 mg/kg/day and 32 mg/kg | aspartate aminotransferase (AST) ([2]; males 1,000 mg/kg/day): slight increases | alanine aminotransferase (ALT) ([2]; males 1,000 mg/kg/day, females 2,000/1,500 mg/kg/day): slight increases | mean absolute and relative kidney weights ([2]; males 500 and 1,000 mg/kg/day, females 1,000 mg/kg/day): statistically significant, test article-related increases | mean absolute and relative liver weights ([2]; males and females at 1,000 mg/kg/day): statistically significant, test article-related increases | prothrombin time ([2]; males of both groups): increased | Activated partial thromboplastin time ([2]; males ≧1,000 mg/kg/day, females 2,000/1,500 mg/kg/day): decreased | Hgb, Hct, MCV, and MCHC ([2]; ≧1,000 mg/kg/day): decreases | inhibition of phenacetin O-deethylase (CYP1A2) ([3]; DMB up to 300 μM): no significant inhibition | Percent activity remaining, phenacetin O-deethylase (CYP1A2) [3, 8]: 80% | inhibition of amodiaquine N-deethylase (CYP2C8) ([4]; DMB up to 300 μM): no significant inhibition | Percent activity remaining, amodiaquine N-deethylase (CYP2C8) [4, 8]: 80% | inhibition of S-mephenyloin 4′-hydroxylase (CYP2C19) ([5]; DMB up to 300 μM): no significant inhibition | Percent activity remaining, S-mephenyloin 4′-hydroxylase (CYP2C19) [5, 8]: 80% | inhibition of midazolam 1′-hydroxylase (CYP3A) ([6]; DMB up to 300 μM): no significant inhibition | inhibition of testosterone 6β-hydroxylase (CYP3A) ([6]; DMB up to 300 μM): no significant inhibition | Percent activity remaining, midazolam 1′-hydroxylase (CYP3A) [6, 8]: 80% | Percent activity remaining, testosterone 6β-hydroxylase (CYP3A) [6, 8]: 80% | inhibition of bufuralol 1′-hydroxylase (CYP2D6) ([7]; DMB up to 300 μM): no significant inhibition | Percent activity remaining, bufuralol 1′-hydroxylase (CYP2D6) [7, 8]: 80%
